Data as given in ChEMBL document CHEMBL1144730, “Novel antibacterial azetidine lincosamides” (Bioorg Med Chem Lett, 2008).
Converted amounts (≈) assume the structure as drawn.

How the values were obtained:
Type in all cases: functional
Staphylococcus aureus [1] = test: Antibacterial activity against macrolide, licosamide and streptogramin resistant Staphylococcus aureus by broth microdilution method
Streptococcus pneumoniae = test: Antibacterial activity against Streptococcus pneumoniae by broth microdilution method
Staphylococcus aureus [2] = test: Antibacterial activity against Staphylococcus aureus by broth microdilution method
Enterococcus faecium = test: Antibacterial activity against Enterococcus faecium by broth microdilution method
Enterococcus faecalis = test: Antibacterial activity against Enterococcus faecalis by broth microdilution method
Bacteroides fragilis = test: Antibacterial activity against Bacteroides fragilis by broth microdilution method
Staphylococcus aureus [3] = test: Antibacterial activity against Staphylococcus aureus Smith infected iv dosed mouse septicemia model
Escherichia coli = test: Inhibition of protein synthesis in Escherichia coli by transcription/translation inhibition assay
Staphylococcus aureus [4] = test: Antibacterial activity against Staphylococcus aureus Smith infected po dosed mouse septicemia model

Row | Structure (SMILES) | MIC (Staphylococcus aureus [1]) | MIC (Streptococcus pneumoniae) | MIC (Staphylococcus aureus [2]) | MIC (Enterococcus faecium) | MIC (Enterococcus faecalis) | MIC (Bacteroides fragilis) | ED50 (Staphylococcus aureus [3]) | IC50 (Escherichia coli) | ED50 (Staphylococcus aureus [4])
1 | CS[C@H]1O[C@H]([C@H](NC(=O)[C@H]2NC[C@@H]2CCC(F)F)[C@H](C)Cl)[C@H](O)[C@H](O)[C@H]1O | > 4 µg/mL | 0.125 µg/mL (≈ 0.289 µM) | 1 µg/mL (≈ 2.31 µM) | 0.5 µg/mL (≈ 1.15 µM) | 2 µg/mL (≈ 4.62 µM) | 1 µg/mL (≈ 2.31 µM) |  |  | 
2 | CS[C@H]1O[C@H]([C@H](NC(=O)[C@H]2NC[C@@H]2CCC2CCC2)[C@H](C)Cl)[C@H](O)[C@H](O)[C@H]1O | > 4 µg/mL | 0.125 µg/mL (≈ 0.286 µM) | 0.25 µg/mL (≈ 0.572 µM) | 0.25 µg/mL (≈ 0.572 µM) | 0.25 µg/mL (≈ 0.572 µM) | 0.25 µg/mL (≈ 0.572 µM) |  |  | 
3 | CS[C@H]1O[C@H]([C@H](NC(=O)[C@H]2NC[C@@H]2CCC2CC2)[C@H](C)Cl)[C@H](O)[C@H](O)[C@H]1O | > 4 µg/mL | 0.125 µg/mL (≈ 0.296 µM) | 0.25 µg/mL (≈ 0.591 µM) | 0.125 µg/mL (≈ 0.296 µM) | 0.25 µg/mL (≈ 0.591 µM) | 0.25 µg/mL (≈ 0.591 µM) | 3 mg/kg | 7.8 µM | 
4 | CCCC[C@H]1CN(CCO)[C@@H]1C(=O)N[C@@H]([C@H]1O[C@H](SC)[C@H](O)[C@@H](O)[C@H]1O)[C@H](C)Cl | > 8 µg/mL | 0.125 µg/mL (≈ 0.275 µM) | 0.5 µg/mL (≈ 1.1 µM) | 0.25 µg/mL (≈ 0.549 µM) | 0.5 µg/mL (≈ 1.1 µM) | 0.5 µg/mL (≈ 1.1 µM) |  |  | 
5 | CS[C@H]1O[C@H]([C@H](NC(=O)[C@H]2NC[C@@H]2CCCC2CC2)[C@H](C)Cl)[C@H](O)[C@H](O)[C@H]1O | > 4 µg/mL | 0.06 µg/mL (≈ 0.137 µM) | 0.125 µg/mL (≈ 0.286 µM) | 0.125 µg/mL (≈ 0.286 µM) | 0.25 µg/mL (≈ 0.572 µM) | 0.25 µg/mL (≈ 0.572 µM) | 3.1 mg/kg | 2.75 µM | 
6 | CCCC[C@H]1CN(C)[C@@H]1C(=O)N[C@@H]([C@H]1O[C@H](SC)[C@H](O)[C@@H](O)[C@H]1O)[C@H](C)Cl | > 4 µg/mL | 0.5 µg/mL (≈ 1.18 µM) | 1 µg/mL (≈ 2.35 µM) | 1 µg/mL (≈ 2.35 µM) | 2 µg/mL (≈ 4.71 µM) | 0.125 µg/mL (≈ 0.294 µM) |  |  | 
7 | CCC[C@H]1CN[C@@H]1C(=O)N[C@@H]([C@H]1O[C@H](SC)[C@H](O)[C@@H](O)[C@H]1O)[C@H](C)Cl | > 8 µg/mL | 0.125 µg/mL (≈ 0.315 µM) | 0.5 µg/mL (≈ 1.26 µM) | 0.5 µg/mL (≈ 1.26 µM) | 0.5 µg/mL (≈ 1.26 µM) | 0.5 µg/mL (≈ 1.26 µM) |  | 12.8 µM | 
8 | CCCCC[C@H]1CN[C@@H]1C(=O)N[C@@H]([C@H]1O[C@H](SC)[C@H](O)[C@@H](O)[C@H]1O)[C@H](C)Cl | > 8 µg/mL | 0.03 µg/mL (≈ 0.0706 µM) | 0.06 µg/mL (≈ 0.141 µM) | 0.125 µg/mL (≈ 0.294 µM) | 0.25 µg/mL (≈ 0.588 µM) | 0.125 µg/mL (≈ 0.294 µM) | 1.7 mg/kg | 1.13 µM | 28 mg/kg
9 | CS[C@H]1O[C@H]([C@H](NC(=O)[C@H]2NC[C@@H]2CC2CC2)[C@H](C)Cl)[C@H](O)[C@H](O)[C@H]1O | > 8 µg/mL | 0.125 µg/mL (≈ 0.306 µM) | 0.5 µg/mL (≈ 1.22 µM) | 0.5 µg/mL (≈ 1.22 µM) | 1 µg/mL (≈ 2.45 µM) | 0.5 µg/mL (≈ 1.22 µM) |  | 11.1 µM | 
10 | CS[C@H]1O[C@H]([C@H](NC(=O)[C@H]2NC[C@@H]2CCCC2CCC2)[C@H](C)Cl)[C@H](O)[C@H](O)[C@H]1O | > 4 µg/mL | 0.016 µg/mL (≈ 0.0355 µM) | 0.03 µg/mL (≈ 0.0665 µM) | 0.06 µg/mL (≈ 0.133 µM) | 0.06 µg/mL (≈ 0.133 µM) | 0.25 µg/mL (≈ 0.554 µM) | > 10 mg/kg | 2.44 µM | 
11 | CCCC[C@H]1CN[C@@H]1C(=O)N[C@@H]([C@H]1O[C@H](SC)[C@H](O)[C@@H](O)[C@H]1O)[C@H](C)Cl | > 8 µg/mL | 0.06 µg/mL (≈ 0.146 µM) | 0.125 µg/mL (≈ 0.304 µM) | 0.125 µg/mL (≈ 0.304 µM) | 0.125 µg/mL (≈ 0.304 µM) | 0.125 µg/mL (≈ 0.304 µM) | 1.1 mg/kg | 0.36 µM | 10.8 mg/kg
12 | CS[C@H]1O[C@H]([C@H](NC(=O)[C@H]2NC[C@@H]2CCC(C)C)[C@H](C)Cl)[C@H](O)[C@H](O)[C@H]1O | > 8 µg/mL | 0.125 µg/mL (≈ 0.294 µM) | 0.5 µg/mL (≈ 1.18 µM) | 0.5 µg/mL (≈ 1.18 µM) | 0.5 µg/mL (≈ 1.18 µM) | 0.5 µg/mL (≈ 1.18 µM) |  | 15.5 µM | 
13 | CCC[C@@H]1C[C@@H](C(=O)N[C@@H]([C@H]2O[C@H](SC)[C@H](O)[C@@H](O)[C@H]2O)[C@H](C)Cl)N(C)C1 [CLINDAMYCIN] | > 8 µg/mL | 0.06 µg/mL (≈ 0.141 µM) | 0.125 µg/mL (≈ 0.294 µM) | 0.125 µg/mL (≈ 0.294 µM) | 0.25 µg/mL (≈ 0.588 µM) |  | 2.8 mg/kg |  | 19.9 mg/kg
